Measured values as given in US20070185184A1, “Carbazole derivatives” (Serenex, Inc., priority 2005, published 2007).

tested on: cell cycle progression in M-phase; experiment: Analysis of cell cycle status: M-phase block (phospho-Histone 3 serine 10, ArrayScan); format: cell-based; details: 5 hours incubation; vs 500 nM vinblastine (100% M-phase block) and DMSO (0%); read-out: M-phase block activities (IC50 range)
Method: Cells are seeded onto 96-well Packard View plates and incubated overnight. Test compounds are added to individual wells the following day at 10× concentrations and the plates returned to the incubator.
For identification of compounds that blocked cell cycle progression in M-phase, cells are incubated with compounds for 5 hours. After incubation, the cell growth media is removed and the cell monolayers are fixed with 3.7% formaldehyde, followed by treatment with 0.1% Triton X-100, and probed with a monoclonal phospho-specific Histone 3 serine 10 antibody. Bound primary antibody is detected with a FITC or TRITC conjugated secondary antibody. The cellular DNA is stained using Hoechst dye. Fixed cells are visualized using an ArrayScan 4.5 HCS plate reader. Cells positive for antibody binding are identified and quantified using the Target Activation Algorithm. IC50 Data from test compounds is generated by comparing test compound activity to the percentage of cells in M-phase detected in 500 nM vinblastine treated cells (100% M-phase block), and the percentage of M-phase cells detected in the DMSO control treated cells (0% M-phase block).

| Compound | IC50 [nM] |
| --- | --- |
| CC(=O)c1cn(-c2ccc(NC(N)=O)cc2Cl)c2ccc(Cl)cc12 [Compound 17, [4-(3-Acetyl-5-chloro-indol-1-yl)-3-chloro-phenyl]-urea] | 500 to 5000 |
| CC(=O)c1cn(-c2ccc(N)cc2Cl)c2cc(Cl)ccc12 [Compound 18, 1-[1-(4-Amino-2-chloro-phenyl)-6-chloro-1H-indol-3-yl]-ethanone] | 500 to 5000 |
| COCCNc1cc(-n2cc(C(C)=O)c3ccccc32)ccc1C(N)=O [Compound 35, 4-(3-Acetyl-indol-1-yl)-2-(2-methoxy-ethylamino)-benzamide] | 500 to 5000 |
| CC(=O)c1cn(-c2ccc(N)cc2Br)c2ccccc12 [Compound 37, 1-[1-(4-Amino-2-bromo-phenyl)-1H-indol-3-yl]-ethanone] | 5000 to 50000 |
| C=CCNc1ccc(-n2c3c(c4ccccc42)C(=O)CCC3)c(C(F)(F)F)c1 [Compound 38, 9-(4-Allylamino-2-trifluoromethyl-phenyl)-1,2,3,9-tetrahydro-carbazol-4-one] | 500 to 5000 |
| NC(=O)Nc1ccc(-n2c3c(c4cc(Cl)ccc42)C(=O)CCC3)c(Cl)c1 [Compound 41, [3-Chloro-4-(6-chloro-4-oxo-1,2,3,4-tetrahydro-carbazol-9-yl)-phenyl]-urea] | < 500 |
| COc1cc(-n2cc(C(C)=O)c3ccccc32)ccc1C(N)=O [Compound 43, 4-(3-Acetyl-indol-1-yl)-2-methoxy-benzamide] | < 500 |
| CC(=O)c1cn(-c2ccc(C(N)=O)cc2Cl)c2cc(Cl)ccc12 [Compound 44, 4-(3-Acetyl-6-chloro-indol-1-yl)-3-chloro-benzamide] | < 500 |

More lines, now with the values ahead:

| IC50 [nM] | Compound |
| --- | --- |
| < 500 | NC(=O)c1ccc(-n2c3c(c4ccccc42)C(=O)CCC3)c(C(F)(F)F)c1 [Compound 29, 4-(4-Oxo-1,2,3,4-tetrahydro-carbazol-9-yl)-3-trifluoromethyl-benzamide] |
| < 500 | CC(=O)NC(=O)Nc1ccc(-n2c3c(c4ccccc42)C(=O)CCC3)c(Cl)c1 [Compound 40, 1-Acetyl-3-[3-chloro-4-(4-oxo-1,2,3,4-tetrahydro-carbazol-9-yl)-phenyl]-urea] |

tested on: PC-3 cell proliferation; experiment: Cell proliferation assay (Cyquant DNA assay); format: cell-based; details: Homo sapiens; PC-3 cells, 2-5 days incubation, vs DMSO (100%) and 10 μM Actinomycin D (0%); read-out: inhibitory activities against PC-3 cell proliferation (IC50 range)
Method: A panel of cancer cell lines is obtained from the DCTP Tumor Repository, National Cancer Institute (Frederick, Md.) or ATCC (Rockville, Md.). Cell cultures are maintained in Hyclone RPMI 1640 medium (Logan, Utah) supplemented with 10% fetal bovine serum and 20 mM HEPES buffer, final pH 7.2, at 37° C. with a 5% CO2 atmosphere. Cultures are maintained at sub-confluent densities.
For proliferation assays, cells are seeded with the appropriate medium into 96 well plates at 1,000-2,500 cells per well, depending on the cell line, and are incubated overnight. The following day, test compound, DMSO solution (negative control), or Actinomycin D (positive control) is added to the appropriate wells as 10× concentrated stocks prepared in phosphate buffered saline. The cell plates where then incubated for an additional 2-5 days, depending on the cell line, to allow proliferation to occur. To measure cell density, growth medium is removed from the adherent cell lines, and the plates stored at −80° C. Using these assay plates, relative amounts of DNA in each well is determined using the Cyquant DNA assay kit from […] (Eugene, Oreg.) following the manufacturer's directions. Results for each compound treatment are compared to DMSO vehicle control (100%) and 10 μM Actinomycin D treated cells (0%).

| Compound | IC50 [nM] |
| --- | --- |
| CC(=O)c1cn(-c2ccc(C(N)=O)cc2Cl)c2ccccc12 [Compound 6, 4-(3-Acetyl-indol-1-yl)-3-chloro-benzamide] | < 500 |
| C/C(=N\O)c1cn(-c2ccc(C(N)=O)cc2Cl)c2ccccc12 [Compound 7, 4-(3-(1-hydroxyimino-ethyl)-indol-1-yl)-3-chloro-benzamide] | < 500 |
| COCCNc1ccc(-n2c3c(c4ccccc42)C(=O)CCC3)c(C(F)(F)F)c1 [Compound 10, 9-[4-(2-methoxy-ethylamino)-2-trifluoromethyl-phenyl]-1,2,3,9-tetrahydro-carbazol-4-one] | 500 to 5000 |
| C=CCNc1cc(-n2c3c(c4ccccc42)C(=O)CCC3)ccc1C(N)=O [Compound 20, 2-Allylamino-4-(4-oxo-1,2,3,4-tetrahydro-carbazol-9-yl)-benzamide] | 500 to 5000 |

Other lines, results leading:

| IC50 [nM] | Compound |
| --- | --- |
| < 500 | NC(=O)c1ccc(-n2c3c(c4ccccc42)C(=O)CCC3)c(Cl)c1 [Compound 2, 3-Chloro-4-(4-oxo-1,2,3,4-tetrahydro-carbazol-9-yl)benzamide] |
| 500 to 5000 | NC(=O)c1ccc(-n2c3c(c4ccccc42)/C(=N/O)CCC3)c(Br)c1 [Compound 4, 3-Bromo-4-(4-hydroxyimino-1,2,3,4-tetrahydro-carbazol-9-yl)benzamide] |
| < 500 | NC(=S)c1ccc(-n2c3c(c4ccccc42)C(=O)CCC3)c(Br)c1 [Compound 5, 3-Bromo-4-(4-oxo-1,2,3,4-tetrahydro-carbazol-9-yl)thiobenzamide] |
| < 500 | NC(=O)Nc1ccc(-n2c3c(c4ccccc42)C(=O)CCC3)c(Cl)c1 [Compound 13, 1-(3-chloro-4-(4-oxo-3,4-dihydro-1H-carbazol-9(2H)-yl)phenyl)urea] |
| 5000 to 50000 | NC(=O)c1ccc(C(F)(F)F)c(-n2c3c(c4ccccc42)C(=O)CCC3)c1 [Compound 14, 3-(4-Oxo-1,2,3,4-tetrahydro-carbazol-9-yl)-4-trifluoromethyl-benzamide] |
| 500 to 5000 | NC(=O)c1ccc(-n2c3c(c4ccccc42)C(=O)NCC3)c(Cl)c1 [Compound 22, 3-Chloro-4-(1-oxo-1,2,3,4-tetrahydro-pyrido[4,3-b]indol-5-yl)-benzamide] |
